The values below come from US20250066389A1, “HETEROCYCLIC AMIDES AND METHODS OF USING THE SAME” (Rgenta Therapeutics, Inc., priority 2021, published 2025).

Counter-ions that a name gives are not always drawn.

For this assay, the system named is PMS1. Kind of assay: Mini-Gene Reporter Assay—PMS1 (firefly luciferase mini-gene reporter transiently transfected into HEK293 cells). It counts as cell-based. Conditions: Homo sapiens, mini-gene firefly luciferase reporter in HEK293 cells; for activation at 5 µM: read-out: PMS1 % Effect at 5 uM. In a few lines: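 HEK293 cells transiently transfected with a mini-gene construct (skipped exon with flanking introns/exons fused to firefly luciferase, pcDNA3.1) are incubated with compounds in duplicate. Exon inclusion raises luminescence; EC50 fitted by Levenberg-Marquardt; effect also scored at 5 μM.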

Turning to `Cc1cn2cc(C(=O)Nc3ccc(N4CCNCC4)nc3)ncc2n1` [Compound 103, 2-methyl-N-(6-(piperazin-1-yl)pyridin-3-yl)imidazo[1,2-a]pyrazine-6-carboxamide], the activation at 5 µM was below 50%.
As for `CCOc1cn2nc(C)cc2cc1C(=O)Nc1cnc(NCC2(F)CNCCOC2)cn1` (stereo not drawn) [Compound 489], the activation at 5 µM was below 50%.
Consider `CCOc1cn2nc(C)cc2cc1C(=O)Nc1cnc(N(C)C2CCNC2)cn1` (stereo not drawn) [Compound 551], for which the activation at 5 µM is above 75%.
`COc1cc2nc(C)cn2cc1C(=O)Nc1ccc(N2CCN[C@@H](C)C2)nn1` [Compound 713, (S)-7-methoxy-2-methyl-N-(6-(3-methylpiperazin-1-yl)pyridazin-3-yl)imidazo[1,2-a]pyridine-6-carboxamide hydrochloride] yielded an IC50 below 1 µM.
The same measure, in the same setting: to `CCOc1cc2nn(C)cc2cc1C(=O)Nc1cnc(N2CCNC(C)(C)C2)cn1` [Compound 734, N-(5-(3,3-dimethylpiperazin-1-yl)pyrazin-2-yl)-6-ethoxy-2-methyl-2H-indazole-5-carboxamide hydrochloride] belongs 1 to 10 µM.
Take `COc1cc2nc(C)cn2cc1C(=O)Nc1ccc(N2C3CCNCC2CC3)cc1F` (stereo not drawn) [Compound 148, N-(4-(3,9-diazabicyclo[4.2.1]nonan-9-yl)-2-fluorophenyl)-7-methoxy-2-methylimidazo[1,2-a]pyridine-6-carboxamide]: the activation at 5 µM is below 50%.
Regarding `CCOc1cc2nn(C)cc2cc1C(=O)Nc1cnc(NCC2CCCCN2)nc1` (stereo not drawn) [Compound 469], the activation at 5 µM is below 50%.
Still for that read-out and setting: the figure for `CCOc1cc2nn(C)cc2cc1C(=O)Nc1cnc(N2CCN[C@@H](C)C2)nc1` [Compound 480] is above 75%.
Consider `COc1cc2nc(C)cn2cc1C(=O)Nc1ccc(N2CCC3(CNC3)C2)cc1F` [Compound 152, N-(2-fluoro-4-(2,6-diazaspiro[3.4]octan-6-yl)phenyl)-7-methoxy-2-methylimidazo[1,2-a]pyridine-6-carboxamide], for which the activation at 5 µM is below 50%.
As for `CCOc1cn2nc(C)cc2cc1C(=O)Nc1cnc(N2CC3CNCC(C3)C2)cn1` [Compound 533], the activation at 5 µM is below 50%.
Consider `CCOc1cn2nc(C)cc2cc1C(=O)Nc1cnc(N2CC3(CCNCC3)C2)cn1` [Compound 548], for which the activation at 5 µM is above 75%.
On to `CCOc1cc2nc(C)cn2cc1C(=O)Nc1ccc(N(C)[C@@H]2C[C@H]3CC[C@@H](C2)N3)nn1` [Compound 256], for which the concentration for half-maximal inhibition (IC50) lay in the range of 1 to 10 µM.
As for `CCOc1cc2nn(C)cc2cc1C(=O)Nc1cnc(N2CC34CCCC3(CNC4)C2)cn1` (stereo not drawn) [Compound 320], the activation at 5 µM was below 50%.
Regarding `COc1cc2nc(C)cn2cc1C(=O)Nc1ccc(N2CCN[C@@H](C(C)C)C2)cc1F` [Compound 142, (S)-N-(2-fluoro-4-(3-isopropylpiperazin-1-yl)phenyl)-7-methoxy-2-methylimidazo[1,2-a]pyridine-6-carboxamide], the activation at 5 µM is above 75%.
`CCOc1cc2nc(C)cn2cc1C(=O)Nc1ccc(N2CCC(CNC(C)C)CC2)nn1` [Compound 232] yielded an IC50 of 1 to 10 µM.
`CCOc1cn2nc(C)cc2cc1C(=O)Nc1cnc(N2CC[C@@H]3CNC[C@@H]3CC2)nc1` [Compound 619]: the activation at 5 µM was below 50%.
Turning to `CCOc1cc2nn(C)cc2cc1C(=O)Nc1cnc(N2CCC(N)(c3cccc(F)c3)C2)nc1` (stereo not drawn) [Compound 418], the activation at 5 µM was below 50%.
With `CCOc1cn2nc(C)cc2cc1C(=O)Nc1cnc(N2CCNCC2)nc1` [Compound 594], the activation at 5 µM is 50 to 75%.
The compound `COc1cc2nc(C)cn2cc1C(=O)Nc1ccc(N2C[C@@H]3C[C@H]2CN3)cc1F` [Compound 628] displayed a half-maximal inhibitory concentration (IC50) below 1 µM.
On to `CCOc1cn2nc(C)cc2cc1C(=O)Nc1cnc(N2CC[C@@H](C)[C@@H](NC)C2)nc1` [Compound 617], for which the activation at 5 µM was below 50%.
As for `CCOc1cc2nn(C)cc2cc1C(=O)Nc1cnc(NC[C@H]2CNCC(C)(C)O2)nc1` [Compound 394], the activation at 5 µM is below 50%.
Take `COc1cc2nc(C)cn2cc1C(=O)Nc1ccc(N2CCNC(C)C2)cc1F` (stereo not drawn) [Compound 179, N-(2-fluoro-4-(3-methylpiperazin-1-yl)phenyl)-7-methoxy-2-methylimidazo[1,2-a]pyridine-6-carboxamide]: the concentration for half-maximal inhibition (IC50) was below 1 µM.
`CCOc1cc2nn(C)cc2cc1C(=O)Nc1ccc(N2CCNC(C)(C)C2)nn1` [Compound 220, N-(6-(3,3-dimethylpiperazin-1-yl)pyridazin-3-yl)-6-ethoxy-2-methyl-2H-indazole-5-carboxamide hydrochloride] displayed a half-inhibitory concentration (IC50) below 1 µM.
`CCOc1nc2nc(C)cn2cc1C(=O)Nc1ccc(N2CCNCC2)cn1` [Compound 711, 7-ethoxy-2-methyl-N-(5-(piperazin-1-yl)pyridin-2-yl)imidazo[1,2-a]pyrimidine-6-carboxamide formate] returned an IC50 below 1 µM.
As to `CCOc1cc2nn(C)cc2cc1C(=O)Nc1cnc(NCC2CNC2)nc1` [Compound 468], the activation at 5 µM was below 50%.
`CCOc1cn2nc(C)cc2cc1C(=O)Nc1cnc(N(C)CCN2CCNCC2)nc1` [Compound 582]: the activation at 5 µM is below 50%.
Turning to `CCOc1cc2nn(C)cc2cc1C(=O)Nc1cnc(NCC2C3CNCC32)cn1` (stereo not drawn) [Compound 322], the activation at 5 µM was below 50%.
With `CCOc1cc2nc(C)cn2cc1C(=O)Nc1ccc(N2CCCC(CNC)C2)nn1` (stereo not drawn) [Compound 278], the half-maximal inhibitory concentration (IC50) lay in the range of 1 to 10 µM.
Turning to `CCOc1cc2nn(C)cc2cc1C(=O)Nc1cnc(N(C)C[C@H]2CCCN2)nc1` [Compound 438], the activation at 5 µM was below 50%.
Consider `CCOc1cc2nn(C)cc2cc1C(=O)Nc1cnc(NC[C@H]2CCCN2)nc1` [Compound 475], for which the activation at 5 µM is below 50%.
Consider `CCOc1cc2nn(C)cc2cc1C(=O)Nc1ccc(C2=CC(C)NCC2)nn1` (stereo not drawn) [Compound 752, 6-ethoxy-2-methyl-N-(6-(6-methyl-1,2,3,6-tetrahydropyridin-4-yl)pyridazin-3-yl)-2H-indazole-5-carboxamide], for which the activation at 5 µM is above 75%.
The compound `Cc1cn2cc(C(=O)Nc3ccc(N4CCN[C@@H](C)C4)nn3)c(OC3CCOCC3)cc2n1` [Compound 211, (S)-2-methyl-N-(6-(3-methylpiperazin-1-yl)pyridazin-3-yl)-7-((tetrahydro-2H-pyran-4-yl)oxy)imidazo[1,2-a]pyridine-6-carboxamide hydrochloride] displayed an IC50 of 10 to 50 µM.
`CCOc1cn2nc(C)cc2cc1C(=O)Nc1cnc(NC2CNCC23CCC3)cn1` (stereo not drawn) [Compound 509]: the activation at 5 µM is below 50%.
Regarding `CCOc1cc2nn(C)cc2cc1C(=O)Nc1cnc(NCC[C@H]2C[C@H](N)C2)nc1` [Compound 384], the activation at 5 µM is below 50%.
Consider `CCOc1cc2nn(C)cc2cc1C(=O)Nc1cnc(N2CCCC(NC)CC2)cn1` (stereo not drawn) [Compound 317], for which the activation at 5 µM is below 50%.
Consider `CCOc1cc2nn(C)cc2cc1C(=O)Nc1cnc(N2CC(CO)C3(CNC3)C2)cn1` (stereo not drawn) [Compound 330], for which the activation at 5 µM is below 50%.
In the case of `CCOc1cc2nn(C)cc2cc1C(=O)Nc1cnc(N2CCCNCC2)nc1` [Compound 485], the activation at 5 µM was below 50%.
In turn, `CCOc1cc2nc(C)cn2cc1C(=O)Nc1ccc(N2CCN[C@@H](C)C2)nn1` [Compound 217, (S)-7-ethoxy-2-methyl-N-(6-(3-methylpiperazin-1-yl)pyridazin-3-yl)imidazo[1,2-a]pyridine-6-carboxamide HCl Salt] displayed an IC50 below 1 µM.
`CCOc1cn2nc(C)cc2cc1C(=O)Nc1cnc(NC[C@@H]2CC(F)(F)CN2)cn1` [Compound 532]: the activation at 5 µM was below 50%.
As to `CCOc1cn2nc(C)cc2cc1C(=O)Nc1cnc(NCC2(C)CCNC2)cn1` (stereo not drawn) [Compound 528], the activation at 5 µM was below 50%.
`CCOc1cc2nn(C)cc2cc1C(=O)Nc1cnc(NCCC2CCCCN2)nc1` (stereo not drawn) [Compound 460]: the activation at 5 µM was below 50%.
Consider `CCOc1cn2nc(C)cc2cc1C(=O)Nc1cnc(N2CCCCC3(CCNC3)C2)cn1` (stereo not drawn) [Compound 499], for which the activation at 5 µM is below 50%.
Turning to `CCOc1cc2nn(C)cc2cc1C(=O)Nc1cnc(NCc2ccc(CN3CCNCC3)cc2)cn1` [Compound 334], the activation at 5 µM was below 50%.
With `CCOc1cc2nn(C)cc2cc1C(=O)Nc1cnc(N2CCCNCC2C)cn1` (stereo not drawn) [Compound 351], the activation at 5 µM was below 50%.
The compound `CCOc1cc2nc(C)cn2cc1C(=O)Nc1ccc(N2CCC(NCC3CC3)CC2)nn1` [Compound 249] came in with a 50% inhibitory concentration (IC50) of 1 to 10 µM.
Consider `CCOc1cc2nn(C)cc2cc1C(=O)Nc1cnc(N2CCC[C@H]3CNC[C@H]32)cn1` [Compound 340], for which the activation at 5 µM is 50 to 75%.
Turning to `CCOc1cc2nn(C)cc2cc1C(=O)Nc1cnc(NCC2(CN)CCC2)nc1` [Compound 421], the activation at 5 µM is below 50%.
`COc1cc2nc(C)cn2cc1C(=O)Nc1ccc(N2CCN[C@@H]3CC[C@@H]32)cc1F` (racemic) [Compound 174, rac-N-(4-((1R,6S)-2,5-diazabicyclo[4.2.0]octan-2-yl)-2-fluorophenyl)-7-methoxy-2-methylimidazo[1,2-a]pyridine-6-carboxamide] came in with a half-inhibitory concentration (IC50) below 1 µM.
In the case of `CCOc1cc2nn(C)cc2cc1C(=O)Nc1cnc(NCC[C@@H]2C[C@H](OC)CN2)cn1` [Compound 327], the activation at 5 µM was below 50%.
As for `COc1cc2nc(C)cn2cc1C(=O)Nc1ccc(N2CCNCC(O)C2)cc1F` (stereo not drawn) [Compound 153, N-(2-fluoro-4-(6-hydroxy-1,4-diazepan-1-yl)phenyl)-7-methoxy-2-methylimidazo[1,2-a]pyridine-6-carboxamide], the activation at 5 µM is below 50%.
`CCOc1cc2nc(C)cn2cc1C(=O)Nc1ccc(N2CCNCC2)nn1` [Compound 290] returned an IC50 below 1 µM.
Turning to `CCOc1cc2nn(C)cc2cc1C(=O)Nc1cnc(N2CCCC(CCN)C2)nc1` (stereo not drawn) [Compound 455], the activation at 5 µM is below 50%.
As for `CCOc1cn2nc(C)cc2cc1C(=O)Nc1cnc(N2C[C@H]3CNC[C@H]3C2)cn1` [Compound 547], the activation at 5 µM is above 75%.
The same measure, in the same setting: to `CCOc1cn2nc(C)cc2cc1C(=O)Nc1cnc(N2CCOC3(CCNCC3)C2)nc1` [Compound 587] belongs below 50%.

What is called IC50 is the concentration that inhibits the measured activity by half.
